The source of these data is patent publication US20070196890A1, “Prebiotic effect analysis” (priority 2003, published 2007).

The subject of test [1] is Eubacteria. The experiment in a line: Batch culture fermentation, FISH enumeration. The format is cell-based, Eubacterium rectale. The settings on record: 1% (w/v) substrate. How it is done: (§1) Faecal samples are obtained from healthy human volunteers. Volunteers are required not to have been prescribed antibiotics for at least 6 months prior to the study and have no history of gastrointestinal diseases. The samples are collected on site and used immediately following collection. A 1/10 dilution in anaerobic phosphate buffer (0.1 M, pH 7.4) is prepared and the samples homogenised in a stomacher for 2 minutes.
(§2) Sterile, stirred, batch culture fermentation vessels (300 ml volume) are filled with 135 ml basal nutrient medium (peptone water 2 g/l, yeast extract 2 g/l, NaCl 0.1 g/l, K2HPO4 0.04 g/l, KH2PO4 0.04 g/l, MgSO4.7H2O 0.01 g/l, CaCl2.6H2O 0.01, NaHCO3 2 g/l, Tween 80 2 ml, Hemin 0.02 g/l, Vitamin K1 10 μl, Cysteine.HCl 0.5 g/l, Bile salts (sodium glycocholate and sodium taurocholate) 0.5 g/l, pH 7.0) and gassed overnight with oxygen free nitrogen. […] Samples (3 ml) from each vessel are obtained for fluorescence in situ hybridisation (FISH), analysis of SCFA by high performance liquid chromatography (HPLC) and total carbohydrate measurement by assay. […]
(§3) Differences in bacterial populations are assessed through use of FISH with oligonucleotide probes designed to target diagnostic regions of 16S rRNA. […]

Test [2] deals with Clostridia. The experiment in a line: Batch culture fermentation, FISH enumeration. To be noted: 1% (w/v) substrate. The format is cell-based, Clostridium coccoides and Clostridium histolyticum. Here is the method:
as §1, §2, §3

In test [3] the test system is faecal bacteria. The experiment in a line: Analysis of SCFA production by HPLC, batch culture. The format is cell-based, human. To be noted: 1% (w/v) substrate.
Description: The production of succinic, lactic, formic, acetic, propionic, isobutyric, butyric, isovaleric and valeric acids in the fermentations is quantified by HPLC. Samples are centrifuged at 1500×g for 15 minutes and the resultant supernatant used for injection. A Model 1050 UV HPLC (Hewlett Packard), with an integrated oven compartment (50° C.) and data system is used in combination with a differential refractometer (Knauer). Sample injection is performed using an autosampler and is of 20 μl volume. The column is a pre-packed Aminex HPX-87-H strong cation-exchange resin column (150×7.8 mm I.D.), fitted with an ion exclusion micro-guard refill cartridge (Bio-Rad Labs., USA). The eluent used is 0.005 M sulphuric acid. Faecal samples are incubated with 135 ml basal nutrient medium containing 1% (w/v) substrate in batch culture systems at 37° C. Samples are taken every 2 hours up to 10 hours and then at 15 and 24 hours.
For test [4], the system named is faecal bacteria. The experiment in a line: Measure of the prebiotic effect (MPE), batch culture. It is filed as cell-based, human. To be noted: ½√(x²y²+x²z²+y²z²), x=PI (μmax), y=ratio, z=Ar; sign from PI. The text has this: The three values (PI, Ar and ratio) obtained are used to calculate the MPE value using the following equation: ½√{square root over (x^2y^2+x^2z^2+y^2z^2)}=MPE wherein x=PI (as calculated under paragraph 2.1.2); y=ratio of lactate over total SCFA (as calculated under paragraph 2.2) and z=Ar (as calculated under paragraph 2.3).

Test [5] deals with Lactobacilli. As to the kind of experiment: Batch culture fermentation, FISH enumeration. The format is cell-based, Lactobacillus/Enterococcus spp. To be noted: 1% (w/v) substrate. Here is the method:
as §1, §2, §3

Test [6] has as its system faecal bacteria. As to the kind of experiment: Total carbohydrate assay, rate of substrate assimilation, batch culture. The format is cell-based, human. The settings on record: St=S0−Art, S0=1% by weight, exponential phase of bacterial growth. How it is done:
A phenol-sulphuric acid assay is used for the determination of total carbohydrate content as expressed in glucose equivalents. The assay is calibrated with D-glucose standards ranging from 0 to 0.15 mgml^−1. Measurements of the absorbance at 450 nm are taken using the spectrophotometer and plotted against the standards. The total carbohydrate content is thus calculated. […] Samples are taken every 2 hours up to […] and then at 15 and 24 hours. […] The rate of assimilation is calculated with the following equation: St=S0−Art […]

Test [7] deals with E. coli. The experiment in a line: Batch culture fermentation, FISH enumeration. It is filed as cell-based, Escherichia coli. To be noted: 1% (w/v) substrate.
Excerpt: For total bacterial counts the nucleic acid stain 4,6-diamidino-2-phenylindole (DAPI) is used. […] For each slide at least 15 different fields of view are counted. […]
In test [8] the test system is Desulfovibrio spp. As to the kind of experiment: Batch culture fermentation, FISH enumeration. The settings on record: 1% (w/v) substrate. The format is cell-based. Here is the method:
as §1
(§4) Sterile, stirred, batch culture fermentation vessels (300 ml volume) are filled with 135 ml basal nutrient medium (peptone water 2 g/l, yeast extract 2 g/l, NaCl 0.1 g/l, K2HPO4 0.04 g/l, KH2PO4 0.04 g/l, MgSO4.7H2O 0.01 g/l, CaCl2.6H2O 0.01, NaHCO3 2 g/l, Tween 80 2 ml, Hemin 0.02 g/l, Vitamin K1 10 μl, Cysteine.HCl 0.5 g/l, Bile salts (sodium glycocholate and sodium taurocholate) 0.5 g/l, pH 7.0) and gassed overnight with oxygen free nitrogen. Prior to addition of the faecal slurry,0.25%, 0.5% or 1% (w/v) testing substrates are added to different vessels, culture temperature is set at 37° C. by means of a circulating water bath and medium pH is maintained at 6.8 using an Electrolab pH controller. The vessels are inoculated with 15 ml of fresh faecal slurry ( 1/10 w/v) and continuously sparged with O2-free N2 at a flow rate of 15 ml/min. Samples (3 ml) from each vessel are obtained for fluorescence in situ hybridisation (FISH), analysis of SCFA by high performance liquid chromatography (HPLC) and total carbohydrate measurement by assay. Batch cultures are run over a period of 24 hours and samples are obtained every 2 hours up to 12 hours and then at 15 and 24 hours.
(§5) Differences in bacterial populations are assessed through use of FISH with oligonucleotide probes designed to target diagnostic regions of 16S rRNA. These are commercially synthesised and labelled with the fluorescent dye Cy3 (provided by Eurogentec UK Ltd).
(§6) For total bacterial counts the nucleic acid stain 4,6-diamidino-2-phenylindole (DAPI) is used. Samples obtained from fermentation vessels are diluted in 4% (w/v) paraformaldehyde and fixed overnight at 4° C. The cells are then centrifuged at 1500×g for 5 minutes, washed twice with phosphate-buffered saline (PBS; 0.1 M, pH 7.0), resuspended in a mixture of PBS/99% ethanol (1:1 w/v) and stored at −20° C. for at least 1 hour. For Lab 158 probe samples are further resuspended in the enzyme mixture containing agents that increase cell permeability and incubated for 1 hour at 37° C. The cells are then washed in PBS, resuspended in 100% methanol and stored at −20° C. for at least 1 hour. The cell suspension is then added to the hybridisation mixture and left overnight to hybridise at the appropriate temperature for each probe. Hybridized mixture is vacuum filtered using a 0.2 μm Isopore membrane filter (Millipore Corporation, Herts, UK). The filter is removed, placed onto a glass slide with SlowFade (Molecular Probes, Eugan, Oreg., USA) and examined under a fluorescent microscope (Nicon Eclipse, E400). The DAPI stained cells are examined under UV light and hybridised cells viewed using a DM510 filter. […] Samples are taken after 24 hours. […] Microbial counts are presented as log10cells/ml.

For test [9], the system named is Bifidobacterium spp. As to the kind of experiment: Batch culture fermentation, FISH enumeration. It is filed as cell-based. To be noted: 1% (w/v) substrate. Here is the method: as §1, §4, §5, §6
Test [10] relates to Bacteroides spp. As to the kind of experiment: Batch culture fermentation, FISH enumeration. To be noted: 1% (w/v) substrate. It is filed as cell-based. Here is the method:
as §1, §4, §5, §6

In the case of `OC[C@H]1O[C@@](CO)(O[C@H]2O[C@H](CO)[C@@H](O)[C@H](O)[C@H]2O)[C@@H](O)[C@@H]1O` [Sucrose, sucrose], in test [1], the “μmax E (maximum growth rate, Eubacterium rectale)” value was -0.21 h⁻¹. The same compound gave an Eubacteria microbial counts in [1] (24 hours, FISH) of 7.7 log10cells/ml. The “μmax Cl (maximum growth rate, Clostridium coccoides and Clostridium histolyticum)” value in test [2] is 0.22 h⁻¹. The same compound came in with a Clostridia microbial counts in test [2] (24 hours, FISH) of 7.6 log10cells/ml. Further, in test [3], the lactate production result was “low”. Besides, in test [4], the “MPE (measure of the prebiotic effect)” value is recorded as −0.6. Also, in test [5], the “μmax L (maximum growth rate, lactobacilli)” value is 0.03 h⁻¹. This compound also showed a Lactobacilli microbial counts in test [5] (24 hours, FISH) of 6.7 log10cells/ml. The “Ar (rate of substrate assimilation)” value in test [6] turned out to be 1.4 per hour; in test [6] (listed as sucrose), 1.40 per hour. Further, the “μmax Co (maximum growth rate, Escherichia coli)” value in test [7] came out at 0.27 h⁻¹. Also, in test [7] (24 hours, FISH), the “E. Coli microbial counts” value is listed as 7.7 log10cells/ml. Also, in [8], the “μmax SRB (maximum growth rate, Desulfovibrio spp)” value worked out at 0.21 h⁻¹. For the same compound, the Desulfovibrio microbial counts in [8] (24 hours, FISH) amounted to 6.7 log10cells/ml. Moreover, the “μmax B (maximum growth rate, Bifidobacterium spp)” value in [9] worked out at 0.13 h⁻¹. This compound returned a Bifidobacteria microbial counts in [9] (24 hours, FISH) of 8.0 log10cells/ml. In addition, the “μmax Ba (maximum growth rate, Bacteroides spp)” value in test [10] was determined as 0.11 h⁻¹. In [10] (24 hours, FISH), this compound yielded a Bacteroides microbial counts of 8.1 log10cells/ml.
